Data as given in paper PMC6632198, “In planta high levels of hydrolysable tannins inhibit peroxidase mediated anthocyanin degradation and maintain abaxially red leaves of Excoecaria Cochinchinensis” (BMC Plant Biology, 2019).

Biological target: T1, ADE/POD (anthocyanin degradation enzyme/peroxidase), purified Osmanthus POD
T1 construct: major in-gel activity band about 110 kDa on semi-native PAGE
Assay: guaiacol oxidation, absorbance at […] nm
Type: biochemical, Osmanthus fragrans
Conditions: guaiacol and H2O2 as substrates, 50 mM phosphate buffer pH 7.0; partially purified enzyme

Question: Which IC50 does the source give for `O=C(O)c1cc(O)c(O)c(O)c1` [gallic acid] here?
Answer: Its IC50 is 35.55 μM GAE.
